Measurements as given in patent publication US8466176B2 (priority 2008, dated 2013).

assay: logP(HCOOH) reported with HPLC/MS; conditions: HCOOH (formic acid), logP(HCOOH), HPLC/MS

| Compound | chromatographic logP |
| --- | --- |
| Cn1nnnc1C(=NOCc1csc(C#CCOCc2ccccc2)n1)c1ccccc1 [Example 263, N-({2-[3-(benzyloxy)prop-1-yn-1-yl]-1,3-thiazol-4-yl}methoxy)-1-(1-methyl-1H-tetrazol-5-yl)-1-phenylmethanimine] | 4.04 |
| CCCCCON(C(=O)OC(C)(C)C)c1cccc(CON=C(c2ccccc2)c2nnnn2C)n1 [Example 268, tert-butyl {6-[({[(1-methyl-1H-tetrazol-5-yl)(phenyl)methylene]amino}oxy)methyl]pyridin-2-yl}(pentyloxy)carbamate] | 5.25 |

same assay, conditions: HPLC/MS

| Compound | logP(HCOOH) |
| --- | --- |
| CCCCCONc1cccc(CON=C(c2ccccc2)c2nnnn2C)n1 [Example 269, 6-[({[(1-methyl-1H-tetrazol-5-yl)(phenyl)methylene]amino}oxy)methyl]-(pentyloxy)pyridin-2-amine] | 3.87 |

same assay, conditions: method [a]: HPLC on reversed phase columns, pH 2.3 with 0.1% phosphoric acid and acetonitrile as eluent

| Compound | log p |
| --- | --- |
| CCCC#Cc1nc(CON=C(c2ccccc2)c2nnnn2C)cs1 [Example 261] | 3.89^[a] |

same assay, conditions: method [b]: LC-MS at pH 2.7 with 0.1% formic acid in water and acetonitrile (0.1% formic acid), linear gradient 10% to 95% acetonitrile

| Compound | log p |
| --- | --- |
| Cn1nnnc1C(=NOCc1csc(C#Cc2ccccc2C(F)(F)F)n1)c1ccccc1 [Example 267] | 4.51^[b] |
| CCCCCONc1cccc(CON=C(c2ccccc2)c2nnnn2C)n1 [Example 269, 6-[({[(1-methyl-1H-tetrazol-5-yl)(phenyl)methylene]amino}oxy)methyl]-(pentyloxy)pyridin-2-amine] | 3.87^[b] |
| CCCCON(C(=O)OC(C)(C)C)c1cccc(CON=C(c2ccccc2)c2nnnn2C)n1 [Example 280] | 4.75^[b] |
| Cn1nnnc1C(=NOCc1cccc(N(OCCc2ccccc2)C(=O)OC(C)(C)C)n1)c1ccccc1 [Example 281] | 4.89^[b] |
| Cn1nnnc1C(=NOCc1cccc(N(OCc2ccccc2)C(=O)OC(C)(C)C)n1)c1ccccc1 [Example 282] | 4.65^[b] |
| Cn1nnnc1C(=NOCc1cccc(N(OCC2CCCCC2)C(=O)OC(C)(C)C)n1)c1ccccc1 [Example 283] | 6.25[b] |
| Cn1nnnc1C(=NOCc1cccc(NOCC2CCCCC2)n1)c1ccccc1 [Example 284] | 4.44^[b] |
| Cn1nnnc1C(=NOCc1cccc(NOCc2ccccc2)n1)c1ccccc1 [Example 285] | 3.14^[b] |
| CCCCONc1cccc(CON=C(c2ccccc2)c2nnnn2C)n1 [Example 286] | 3.39^[b] |
| Cn1nnnc1C(=NOCc1cccc(NOCCc2ccccc2)n1)c1ccccc1 [Example 287] | 3.69^[b] |
| Cn1nnnc1C(=NOCc1cccc(NCC2CC2)n1)c1cccc(F)c1 [Example 290] | 1.98^[b] |
| Cn1nnnc1C(=NOCc1cccc(NCCC2CCCCC2)n1)c1cccc(F)c1 [Example 291] | 3.27^[b] |
| CSc1cccc(C(=NOCc2cccc(NCC3CCCCC3)n2)c2nnnn2C)c1 [Example 292] | 3.02^[b] |

same assay, conditions: method [b]: LC-MS, pH 2.7 with 0.1% formic acid in water and acetonitrile (0.1% formic acid), linear gradient 10% to 95% acetonitrile

| Compound | log p |
| --- | --- |
| Cn1nnnc1C(=NOCc1cccc(C#Cc2ccsc2)n1)c1ccccc1 [Example 207] | 3.83^[b] |
| Cn1nnnc1C(=NOCc1cccc(C#Cc2ccc3ccccc3c2)n1)c1ccccc1 [Example 208] | 4.78^[b] |
| Cn1nnnc1C(=NOCc1cccc(C#CCCC#N)n1)c1ccccc1 [Example 209] | 2.7^[b] |
| Cn1nnnc1C(=NOCc1cccc(C#CCCc2ccccc2)n1)c1ccccc1 [Example 210] | 4.29^[b] |
| Cn1nnnc1C(=NOCc1cccc(C#CCCCCCl)n1)c1ccccc1 [Example 211] | 3.99^[b] |
| Cn1nnnc1C(=NOCc1cccc(C#CCCCCl)n1)c1ccccc1 [Example 212] | 3.71^[b] |
| Cn1nnnc1C(=NOCc1cccc(C#CCC2CCCCC2)n1)c1ccccc1 [Example 213] | 5.17^[b] |
| CCCCCC#Cc1cccc(CON=C(c2ccccc2)c2nnnn2C)n1 [Example 214] | 4.67^[b] |
| Cn1nnnc1C(=NOCc1cccc(C#Cc2ccccc2Cl)n1)c1ccccc1 [Example 215] | 4.36^[b] |
| Cn1nnnc1C(=NOCc1cccc(C#Cc2ccc(-c3ccccc3)cc2)n1)c1ccccc1 [Example 216] | 5.11^[b] |
| Cn1nnnc1C(=NOCc1cccc(C#Cc2ccc(C(F)(F)F)cc2)n1)c1ccccc1 [Example 217] | 4.65^[b] |
| Cn1nnnc1C(=NOCc1cccc(C#Cc2cccc(C(F)(F)F)c2)n1)c1ccccc1 [Example 218] | 4.62^[b] |
| Cn1nnnc1C(=NOCc1cccc(C#Cc2ccccc2C(F)(F)F)n1)c1ccccc1 [Example 219] | 4.44^[b] |
| Cn1nnnc1C(=NOCc1cccc(C#Cc2ccc(OC(F)(F)F)cc2)n1)c1ccccc1 [Example 220] | 4.75^[b] |
| COc1cccc(C#Cc2cccc(CON=C(c3ccccc3)c3nnnn3C)n2)c1 [Example 221] | 4.09^[b] |
| COc1ccccc1C#Cc1cccc(CON=C(c2ccccc2)c2nnnn2C)n1 [Example 222] | 3.89^[b] |
| Cn1nnnc1C(=NOCc1cccc(C#Cc2ccc(F)cc2)n1)c1ccccc1 [Example 223] | 4.11^[b] |
| Cn1nnnc1C(=NOCc1cccc(C#Cc2ccc(C#N)cc2)n1)c1ccccc1 [Example 224] | 3.69^[b] |
| Cn1nnnc1C(=NOCc1cccc(C#Cc2cccc(C#N)c2)n1)c1ccccc1 [Example 225] | 3.69^[b] |

| Compound | log p |
| --- | --- |
| CCCCOc1ccc(C#Cc2cccc(CON=C(c3ccccc3)c3nnnn3C)n2)cc1 [Example 226] | 5.29^[b] |
| CCOc1ccc(C#Cc2cccc(CON=C(c3ccccc3)c3nnnn3C)n2)cc1 [Example 227] | 4.41^[b] |
| COc1ccc(C#Cc2cccc(CON=C(c3ccccc3)c3nnnn3C)n2)cc1 [Example 228] | 4.01^[b] |
| CC(C)c1ccc(C#Cc2cccc(CON=C(c3ccccc3)c3nnnn3C)n2)cc1 [Example 229] | 5.14^[b] |
| CCc1ccc(C#Cc2cccc(CON=C(c3ccccc3)c3nnnn3C)n2)cc1 [Example 230] | 4.81^[b] |
| Cc1ccc(C#Cc2cccc(CON=C(c3ccccc3)c3nnnn3C)n2)cc1 [Example 231] | 4.44^[b] |
| Cn1nnnc1C(=NOCc1cccc(C#Cc2ccc(N3CCCCC3)cc2)n1)c1ccccc1 [Example 232] | 4.81^[b] |
| Cn1nnnc1C(=NOCc1cccc(C#Cc2cc(F)cc(F)c2)n1)c1ccccc1 [Example 233] | 4.31^[b] |
| Cn1nnnc1C(=NOCc1cccc(C#Cc2ccc(Oc3ccccc3)cc2)n1)c1ccccc1 [Example 234] | 5.08^[b] |
| CCCCCCC#Cc1cccc(CON=C(c2ccccc2)c2nnnn2C)n1 [Example 235] | 5.11^[b] |
| Cn1nnnc1C(=NOCc1cccc(C#CCC2CCCC2)n1)c1ccccc1 [Example 236] | 4.78^[b] |
| Cn1nnnc1C(=NOCc1cccc(C#CCCC2CCCCC2)n1)c1ccccc1 [Example 237] | 5.62^[b] |
| Cn1nnnc1C(=NOCc1cccc(C#CCc2ccccc2)n1)c1ccccc1 [Example 238] | 4.09^[b] |
| Cn1nnnc1C(=NOCc1cccc(C#CCCCC#N)n1)c1ccccc1 [Example 239] | 2.9^[b] |
| COC(C)(C)C#Cc1cccc(CON=C(c2ccccc2)c2nnnn2C)n1 [Example 240] | 3.42^[b] |
| CCCOC(C)(C)C#Cc1cccc(CON=C(c2ccccc2)c2nnnn2C)n1 [Example 241] | 4.31^[b] |
| Cn1nnnc1C(=NOCc1cccc(C#CCN2CCOCC2)n1)c1ccccc1 [Example 242] | 1.44^[b] |
| CCSCC#Cc1cccc(CON=C(c2ccccc2)c2nnnn2C)n1 [Example 243] | 3.69^[b] |
| CCCc1ccc(C#Cc2cccc(CON=C(c3ccccc3)c3nnnn3C)n2)cc1 [Example 244] | 5.23^[b] |

| Compound | log p |
| --- | --- |
| Cn1nnnc1C(=NOCc1cccc(C#Cc2ccc(C(C)(C)C)cc2)n1)c1ccccc1 [Example 245] | 5.44^[b] |
| CCCOc1ccc(C#Cc2cccc(CON=C(c3ccccc3)c3nnnn3C)n2)cc1 [Example 246] | 4.86^[b] |
| Cn1nnnc1C(=NOCc1cccc(C#Cc2ccccc2F)n1)c1ccccc1 [Example 247] | 4.06^[b] |
| Cn1nnnc1C(=NOCc1cccc(C#Cc2cccc(F)c2)n1)c1ccccc1 [Example 248] | 4.16^[b] |
| Cn1nnnc1C(=NOCc1cccc(C#Cc2cccc(OC(F)(F)F)c2)n1)c1ccccc1 [Example 249] | 4.75^[b] |
| Cn1nnnc1C(=NOCc1cccc(C#Cc2ccc(Cl)cc2)n1)c1ccccc1 [Example 250] | 4.54^[b] |
| CN(C)c1ccc(C#Cc2cccc(CON=C(c3ccccc3)c3nnnn3C)n2)cc1 [Example 251] | 4.29^[b] |
| Cn1nnnc1C(=NOCc1cccc(C#CCCO)n1)c1ccccc1 [Example 253] | 2.23^[b] |
| CCC(=O)OCC#Cc1cccc(CON=C(c2ccccc2)c2nnnn2C)n1 [Example 254] | 3.29^[b] |
| Cn1nnnc1C(=NOCc1cccc(C#CCOCc2ccccc2)n1)c1ccccc1 [Example 255] | 3.96^[b] |
| CCCOc1ccc(C#Cc2nc(CON=C(c3ccccc3)c3nnnn3C)cs2)cc1 [Example 256] | 5.03^[b] |
| CC(C)c1ccc(C#Cc2nc(CON=C(c3ccccc3)c3nnnn3C)cs2)cc1 [Example 257] | 5.29^[b] |
| CCCCOc1ccc(C#Cc2nc(CON=C(c3ccccc3)c3nnnn3C)cs2)cc1 [Example 258] | 5.44^[b] |
| Cn1nnnc1C(=NOCc1csc(C#Cc2cccc(C#N)c2)n1)c1ccccc1 [Example 259] | 3.76^[b] |
| Cn1nnnc1C(=NOCc1csc(C#Cc2ccccc2F)n1)c1ccccc1 [Example 260] | 4.15^[b] |
| Cn1nnnc1C(=NOCc1csc(C#Cc2ccc(F)cc2)n1)c1ccccc1 [Example 262] | 4.16^[b] |
| Cn1nnnc1C(=NOCc1csc(C#Cc2cccc(F)c2)n1)c1ccccc1 [Example 264] | 4.19^[b] |
| Cn1nnnc1C(=NOCc1csc(C#Cc2cccc(OC(F)(F)F)c2)n1)c1ccccc1 [Example 265] | 4.81^[b] |
| Cn1nnnc1C(=NOCc1csc(C#Cc2ccc(OC(F)(F)F)cc2)n1)c1ccccc1 [Example 266] | 4.89^[b] |

same assay, conditions: reversed phase HPLC column, pH 2.7, log p, method [b]: LC-MS at pH 2.7 with 0.1% formic acid in water and acetonitrile (0.1% formic acid), linear gradient 10% to 95% acetonitrile

| Compound | chromatographic logP |
| --- | --- |
| CCCCCON(C(=O)OC(C)(C)C)c1cccc(CON=C(c2ccccc2)c2nnnn2C)n1 [Example 268, tert-butyl {6-[({[(1-methyl-1H-tetrazol-5-yl)(phenyl)methylene]amino}oxy)methyl]pyridin-2-yl}(pentyloxy)carbamate] | 5.25 |

same assay, conditions: reversed phase HPLC column, pH 2.7, log p, method [b]: LC-MS, pH 2.7 with 0.1% formic acid in water and acetonitrile (0.1% formic acid), linear gradient 10% to 95% acetonitrile

| Compound | chromatographic logP |
| --- | --- |
| Cn1nnnc1C(=NOCc1csc(C#CCOCc2ccccc2)n1)c1ccccc1 [Example 263, N-({2-[3-(benzyloxy)prop-1-yn-1-yl]-1,3-thiazol-4-yl}methoxy)-1-(1-methyl-1H-tetrazol-5-yl)-1-phenylmethanimine] | 4.04 |
